In test [1] the test system is Serine/Threonine casein kinase2 (CK2). Nature of the test: CK2 inhibition in breast cancer cell lines: NRP-1 and JAK2 phosphorylation and NRP-1/OBR complex formation. Type of test: cell-based. As to conditions: MDA-MB231 / T47D breast cancer cell lines.
In test [2] the test system is MDA-MB231 breast cancer cell line. Nature of the test: In vitro cell migration of MDA-MB231 breast cancer cell line. It is filed as cell-based, human.
The next test relates to NRP-1/OBR complex. The test is described as follows: NRP-1/OBR complex detection in MDA-MB231 breast cancer cell line by proximity ligation assay (PLA). Type of test: cell-based. Conditions: MDA-MB231 cultivated in normal human serum, Avastin 40 μg/ml for 48 h, compared to untreated cells. The protocol:
NRP-1 and OBR Complex Detection in MBA-MB231 Breast Cancer Cell Line by Immunocytochemistry Using a PLA Technology
The detection of NRP-1/OBR complex in human MDA-MB231 breast cancer cell line was assessed by proximity ligation assay (PLA) or duolink technology (www.olink.com). The detection of the NRP-1/OBR complex was assessed on MDA-MB231 cell line cultivated in normal human serum (human male AB plasma, USA origin, MDL number MFCD00165829 H4522 Sigma) and treated or not with Avastin 40 μg/ml final concentration for 48 h. The goal by using human serum was to mimic a physiologic condition during therapy with Avastin. The immunostained samples were analysed by the acquisition of the Z stacks through confocal microscopy on Zeiss LSM 700, Inverted confocal microscope. The acquired images were analyzed using Image J software for the quantification of NRP-1/OBR complex expressed by cells.

In a further test the target is T1, NRP-1 (Homo sapiens, UniProt O14786).
T1 construct: the extracellular domain of the recombinant protein NRP-1 from RnD systems; purchased RnD systems
Nature of the test: Bio-layer interferometry (BLI) protein:protein interaction with NRP-1. Type of test: binding. Conditions: for interaction (binding) with NRP-1 by BLI: recombinant proteins, extracellular domain of recombinant NRP-1 for the peptide; for competition between leptin and VEGF for binding to NRP-1: BLI competition experiment. Here is the method: Bio-Layer Interferometry Bio-layer interferometry (BLI) is a label-free technique that is sensitive to an increase of mass bound to the biosensor enabling protein-protein interaction characterization. Ligands preparation: proteins were incubated in a PBS buffer with a 1:3 ratio molar ratio of biotin (biotin-PEG4-NHS from Pierce EZ kit, prepared following the manufacturer's instructions). Free biotin was removed using a desalting column (Pierce). The biotinylated protein (called ligand) was immobilized onto streptavidin biosensor tips and dipped into wells containing the buffer with the analyte of interest (association) or without (dissociation). Experimental conditions were as follow: total volume in each well: 200 μl; shake speed: 1,000 rpm. For simple protein:protein interactions an association phase was followed by a dissociation phase. For competition experiments, the association phase was followed by another association phase with a second analyte instead of a dissociation phase. Sensorgrams were background corrected, smoothed with the Savitzky-Golay algorithm and analyzed using OctetRED instrument software (ForteBio Data Analysis version 7.1). Experimental sensorgrams were first fit to a 1:1 model. The 1:1 model was accepted if the Chi^2 test was below 3 and the R^2 was above 0.9. When the 1:1 model was rejected, the model with the lowest Chi^2 and the highest R^2 was then selected.
On the technique in general: In BLI a coated tip is dipped into the sample, and binding shifts an interference pattern.

The text below walks through data of patent US10647752B2, “Polypeptides capable of inhibiting the binding between leptin and Neuropilin-1” (INSERM (Institut National de la Sante et de la Recherche …, priority 2015, dated 2020).

“Also recorded” adds a separate entry of the source.

In the case of `O=C(O)c1ccc2c(c1)nc(Nc1cccc(Cl)c1)c1ccncc12` [CX4945], in test [1], the “NRP-1 and JAK2 phosphorylation” value is reported as “prevented”; the “formation of the NRP-1/OBR complex” value is “prevented”. As for `OC[C@H]1O[C@@H](n2cnc3cc(Cl)c(Cl)cc32)[C@H](O)[C@@H]1O` [DRB], in test [1], the “NRP-1 and JAK2 phosphorylation” value is recorded as “prevented”; the “formation of the NRP-1/OBR complex” value is “prevented”. Consider `Brc1c(Br)c(Br)c2n[nH]nc2c1Br` [TBB], for which, in test [1], the “NRP-1 and JAK2 phosphorylation” value was “prevented”; the “formation of the NRP-1/OBR complex” value is “prevented”. As for “Avastin: Anti-VEGF (bevacizumab) antibody”, the cell migration entry in test [2] is reported as “induces in vitro cell migration; also recorded: increased MDA-MB231 cell migration”. The “number of NRP-1/OBR complex” value in the test on NRP-1/OBR complex is given as “increase of NRP-1/OBR complex detection; also recorded: high number of NRP-1/OBR complex”.

Regarding “ENLRDLLHVLAFSKSCHLPWASGLETL (listed as Homo sapiens) [SEQ ID:3]”, in the test with NRP-1, the “interaction (binding) with NRP-1 by BLI” value is reported as “validated by BLI”. With VEGF, on NRP-1, the “competition between leptin and VEGF for binding to NRP-1” value is given as “does not prevent leptin binding to NRP-1”. Consider “leptin: cytokine-like hormone mainly produced by adipocytes; recombinant protein”, for which, in the test with NRP-1, the “competition between leptin and VEGF for binding to NRP-1” value was “do not compete with VEGF binding”; the “interaction (binding) with NRP-1 by BLI” value is listed as “direct interaction”.
